# Measurements: publication PMC7555970, “Design, Synthesis and Biological Evaluation of Biphenylglyoxamide-Based Small Molecular Antimicrobial Peptide Mimics as Antibacterial Agents” (International Journal of Molecular Sciences, 2020)
# How the values were obtained:
# S. aureus (SA38) [1] = conditions: previously synthesised N-sulfonylphenylglyoxamide iodide salts ref 43; cited from earlier work
# E. coli (K12) = conditions: no antibacterial activity at the highest concentration tested (250 μM) ref 43; cited from earlier work
# Gram-negative bacteria = test system: Gram-negative bacteria; set-up: method as in doi:10.1002/slct.201700336, PMID 28203673; conditions: previously reported ref 43, 44; cited from earlier work
# P. aeruginosa (PA01) = conditions: no antibacterial activity at the highest concentration tested (250 μM) ref 43; cited from earlier work
# S. aureus (SA38) [2] = assay: Minimum inhibitory concentration (MIC) assay against S. aureus; type: cell-based, Staphylococcus aureus; conditions: Staphylococcus aureus
# Description: The antimicrobial activity of the compounds was evaluated by MIC assay using the procedure described by Clinical and Laboratory Standards Institute (CLSI). A single colony of bacteria was cultured overnight in trypticase soy broth (TSB; Oxoid, Basingstoke, UK) at 37 °C with shaking. The resulting bacterial culture was collected by centrifugation and resuspended in TSB twice. The optical density (OD) of the resulting culture was adjusted to OD660 = 0.1 in TSB (which is equivalent to 10^8 colony forming unit (CFU)/mL bacteria). It was further diluted to 10^6 CFU/mL in TSB. 100 µL of the bacterial solution was then added to wells of a 96-well plate (Costar; Sigma-Aldrich, St Louis, MO, USA) containing 100 µL serially diluted peptide mimic, with final concentration ranging from 1 to 250 µM. Wells with bacteria but no compound were used as negative control while wells with only media were set as blank. The plates were then wrapped with parafilm to prevent evaporation and incubated with shaking at 120 rpm at 37 °C for 18–24 h, and the data were recorded by measuring the OD value at 660 nm using a FLUOstar Omega (BMG Labtech, Mornington, Victoria, Australia) microplate reader. […] Each experiment was performed in triplicate and was repeated in three independent experiments.
# [3] = test system: established S. aureus biofilms; set-up: method as in PMID 27405275; conditions: 4× its MIC (32 μM) ref 52; cited from earlier work
compound,measurement,setting,value
CCCCCCCCS(=O)(=O)Nc1ccc(Br)cc1C(=O)C(=O)NCCC[N+](C)(C)C [Compound 4b],MIC against S. aureus,S. aureus (SA38) [1],63 µM
same,MIC against E. coli,E. coli (K12),> 250 µM
same,antibacterial activity against Gram-negative bacteria,Gram-negative bacteria,no antibacterial activity
same,MIC against P. aeruginosa,P. aeruginosa (PA01),> 250 µM
"CN(C)CCCNC(=O)C(=O)c1cc(-c2ccccc2)ccc1NC(=O)c1ccc2ccccc2c1 [Compound 25, N-(3-(2-((3-(Dimethylamino)propyl)amino)-2-oxoacetyl)-[1,1’-biphenyl]-4-yl)-2-naphthamide]",melting point,,151.6 to 151.8 °C
same,MIC,S. aureus (SA38) [2],> 250 µM
"LL-37: a natural antimicrobial peptide that is being tested in phase II clinical trials (LLGDFFRKSKEKIGKEFKRIVQRIKDFLRNLVPRTES; Antibacterial peptide LL-37; UniProt P49913 134-170, looked up)",disruption of mature S. aureus biofilms,[3],approximately 40%
